Experimental findings from PubChem BioAssay (NCI) are described below.

Several values for one entry are separate records, joined by “and”; a condition that tells them apart may be missing. Identical values can stand only once.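 Dose response: 5 concentrations. Exposure: 48 h. Format: 96-well plates. Endpoint: linear interpolation; highest concentration if not reached. The concentration for 50% growth inhibition is given as GI50. TGI marks complete inhibition of growth.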

Some test systems named below: DMS 273 small cell lung; OVCAR-3 ovarian; SNB-19 CNS; XF 498 CNS; SK-OV-3 ovarian; 786-0 renal; KM20L2 colon; HS 578T breast; MDA-MB-435; BT-549 breast.
Holding throughout (experiment): DTP human tumour cell line panel, 48 h

What is called TGI is the concentration giving total growth inhibition. A low value points to more potent growth arrest. As usually defined, the GI50 is the concentration at which growth is held to half of that of the control.

For the molecule `COc1c2c(c(O)c3c4c(c(C)cc13)C1OC3(C(OC)OC5CC(C)(O)C(OC6CC(C)(O)C(O)C(C)O6)C(C)O5)OC1C(OC)(O4)C31CO1)C(=O)C(O)CC2OC1CC(C)(O)C(OC(C)=O)C(C)O1` (stereo not drawn), the TGI in the assay with DMS 273 small cell lung was below 0.01 µM; with OVCAR-3 ovarian, below 0.01 µM; with SNB-19 CNS, 0.739 µM; in the assay with XF 498 CNS it was below 0.01 µM; with SK-OV-3 ovarian, 0.714 µM; with 786-0 renal it was below 0.0115 µM.
On to `O=C(O)C1CC2C=CCC(C2)C1` (stereo not drawn), for which the TGI in the assay on DMS 273 small cell lung, in the assay on OVCAR-3 ovarian, with SNB-19 CNS, in the assay with XF 498 CNS, in the assay with SK-OV-3 ovarian and in the assay with KM20L2 colon was above 100 µM in each case. The same molecule had a TGI in the assay with 786-0 renal above 100 µM.
With `c1ccc(N2CCN(CCN3CCc4c([nH]c5ccccc45)C3c3cccnc3)CC2)cc1` (stereo not drawn), the TGI was above 100 µM in the assay on DMS 273 small cell lung; above 100 µM in the assay with OVCAR-3 ovarian; above 100 µM with SNB-19 CNS; above 100 µM with XF 498 CNS; 95.2 µM with SK-OV-3 ovarian; above 100 µM in the assay with KM20L2 colon. The same molecule showed a TGI with 786-0 renal above 100 µM.
With `COc1ccccc1/C=C(\NC(=O)c1ccccc1)c1nc2ccccc2[nH]1`, the TGI in the assay on OVCAR-3 ovarian, in the assay on SNB-19 CNS, in the assay on XF 498 CNS, with SK-OV-3 ovarian, in the assay with KM20L2 colon and in the assay with 786-0 renal was above 100 µM throughout.
On to `C=C(c1ccccc1)c1cc2c(=O)[nH]ccc2n1C`, for which the TGI with DMS 273 small cell lung was above 100 µM; in the assay with OVCAR-3 ovarian, above 100 µM; in the assay on SNB-19 CNS it was above 100 µM; with XF 498 CNS, 91 µM; in the assay on SK-OV-3 ovarian, 69.4 µM; in the assay on KM20L2 colon, 59.7 µM. In the assay on 786-0 renal, the TGI is above 100 µM.
As for `CCOC(=O)NN1C(=O)C(=P(c2ccccc2)(c2ccccc2)c2ccccc2)C(C(=O)OC)=C1C`, the concentration for total growth inhibition (TGI) in the assay on DMS 273 small cell lung, in the assay on OVCAR-3 ovarian, in the assay on SNB-19 CNS, with XF 498 CNS, with SK-OV-3 ovarian and with KM20L2 colon was above 100 µM throughout. In addition, the TGI in the assay on 786-0 renal was above 100 µM.
Turning to `BrCc1ccc2ccc3ccc(CBr)nc3c2n1`, the TGI with DMS 273 small cell lung is 3.34 µM; with HS 578T breast, 71.3 µM; in the assay with OVCAR-3 ovarian, 3.43 µM; in the assay with SNB-19 CNS it was 19.5 µM; with MDA-MB-435, 16.6 µM; with KM20L2 colon, 29.3 µM. In the assay on 786-0 renal, this molecule yielded a TGI of 7.58 µM.
For the molecule `COC(OC)c1cccnc1C`, the TGI in the assay on DMS 273 small cell lung, in the assay with OVCAR-3 ovarian, in the assay on SNB-19 CNS, with XF 498 CNS, in the assay on SK-OV-3 ovarian and in the assay on KM20L2 colon was above 100 µM throughout. In the assay on 786-0 renal, this molecule yielded a TGI above 100 µM.
`CCOC(=N)CC(=O)Nc1ccccc1CC`: the TGI in the assay on DMS 273 small cell lung, in the assay with OVCAR-3 ovarian, in the assay on SNB-19 CNS, in the assay on XF 498 CNS, in the assay with SK-OV-3 ovarian and in the assay with KM20L2 colon was above 100 µM each time. The molecule also came in with a TGI in the assay with 786-0 renal above 100 µM.
Turning to `C[C@@H]1CC2(C[C@@H](C)C3[C@@H](CC4(C)CCCC5C6=CC(O)(CC[C@]34C)OC6=CC(=O)OC5(C)C)O2)OC1=O` (stereo partly drawn), the TGI in the assay with DMS 273 small cell lung, in the assay with OVCAR-3 ovarian, in the assay on SNB-19 CNS, in the assay with XF 498 CNS, in the assay with SK-OV-3 ovarian and with 786-0 renal was above 100 µM throughout.
Turning to `CC(NC1CCCC[C@@H]1O)c1ccccc1` (stereo partly drawn), the TGI in the assay with DMS 273 small cell lung, with OVCAR-3 ovarian, in the assay on SNB-19 CNS, with XF 498 CNS, with SK-OV-3 ovarian and in the assay on KM20L2 colon was above 100 µM each time. In the assay with 786-0 renal, this molecule came in with a TGI above 100 µM.
For the molecule `COC(=O)CCC(NC(=S)N/N=C(\C)c1cccs1)C(=O)OC` (stereo not drawn), the TGI in the assay with DMS 273 small cell lung, in the assay on OVCAR-3 ovarian, with SNB-19 CNS, in the assay with XF 498 CNS, in the assay with SK-OV-3 ovarian and in the assay on KM20L2 colon was above 100 µM throughout. The molecule further displayed a TGI with 786-0 renal above 100 µM.
As for `O=S1(=O)CCC2=CC(C(F)(F)F)=CC(C(F)(F)F)=CN21`, the TGI in the assay with HS 578T breast is above 43.4 µM; with OVCAR-3 ovarian, 3.14 µM; in the assay on SNB-19 CNS it was 6.08 µM; in the assay on BT-549 breast it was 6.1 µM; in the assay on MDA-MB-435, 4.77 µM; with XF 498 CNS it was 3.42 µM. Also, the TGI worked out at 12.2 µM with SK-OV-3 ovarian, 5.25 µM with KM20L2 colon and 1.09 µM with 786-0 renal.
With `O=C1C(=O)N(c2cc(Cl)ccc2Cl)C(=O)C(=O)C1c1nc2ccccc2s1`, the concentration for total growth inhibition (TGI) in the assay on DMS 273 small cell lung, with OVCAR-3 ovarian, with SNB-19 CNS, with XF 498 CNS, with SK-OV-3 ovarian and in the assay on KM20L2 colon was above 100 µM throughout. The molecule further came in with a TGI in the assay on 786-0 renal above 100 µM.
Regarding `CCOC(=O)C(Cc1cc(OC)c(CC(C(=O)OCC)C(=O)OCC)cc1OC)C(=O)OCC`, the TGI in the assay on DMS 273 small cell lung, with HS 578T breast, in the assay with OVCAR-3 ovarian, in the assay with SNB-19 CNS, in the assay with BT-549 breast and in the assay on MDA-MB-435 was above 100 µM each time. For the same molecule, the TGI with XF 498 CNS is 53.7 µM; in the assay with SK-OV-3 ovarian it was above 100 µM; in the assay on KM20L2 colon, above 100 µM; with 786-0 renal, above 100 µM.
Consider `O=C1N=C2N=C(c3ccc(Cl)cc3)N(c3ccc(Cl)cc3)N2Sc2ccccc21`, for which the TGI in the assay with DMS 273 small cell lung was above 100 µM; in the assay with OVCAR-3 ovarian it was above 100 µM; in the assay with SNB-19 CNS it was above 100 µM; in the assay with XF 498 CNS, 99.4 µM; in the assay with SK-OV-3 ovarian it was above 100 µM; in the assay on KM20L2 colon, above 100 µM. The molecule further gave a TGI with 786-0 renal above 100 µM.
For `O=C1C=C(NCCc2ccccc2)c2ccccc2C1=O`, the TGI in the assay with DMS 273 small cell lung came out at 7.55 µM; in the assay with HS 578T breast it was 5.09 µM; in the assay with OVCAR-3 ovarian, 5.59 µM; in the assay with SNB-19 CNS, 9.29 µM; in the assay with BT-549 breast, 3.77 µM; in the assay with MDA-MB-435 it was 2.34 µM. For the same molecule, the total growth inhibition concentration (TGI) in the assay on SK-OV-3 ovarian stood at 27 µM; in the assay on KM20L2 colon, 18.7 µM; in the assay with 786-0 renal, 16.6 µM.
For `Cc1c(-c2ccc(-c3ccccc3F)cc2)nc2ccc(F)cc2c1C(=O)O`, the GI50 in the assay on DMS 273 small cell lung was 0.5 µM; in the assay with OVCAR-3 ovarian, 10.1 µM and 23 µM; with SNB-19 CNS, 0.864 µM and 1.73 µM; in the assay on BT-549 breast, 17.4 µM and 57.4 µM; in the assay with MDA-MB-435, 1.28 µM and 0.371 µM and 2.48 µM; with XF 498 CNS, 106 µM. The GI50 with SK-OV-3 ovarian was above 41.2 µM; in the assay with KM20L2 colon it was 1.12 µM; in the assay with 786-0 renal it was 0.5 µM. The total growth inhibition concentration (TGI) was 29.3 µM and 89.9 µM with DMS 273 small cell lung; 27.5 µM and 91.6 µM and 139 µM in the assay with OVCAR-3 ovarian; 164 µM and 513 µM in the assay on SNB-19 CNS; 137 µM and 849 µM with BT-549 breast; 101 µM and 128 µM in the assay with MDA-MB-435; 164 µM and 230 µM with XF 498 CNS. Moreover, the TGI with SK-OV-3 ovarian is 86.5 µM and 603 µM; with KM20L2 colon it was 170 µM and 171 µM; with 786-0 renal it was 97.7 µM and 291 µM.
In the case of `C[C@]12CC[C@H](OC(=O)Nc3ccccc3)CC1=CC[C@@H]1C2CC[C@]2(C)/C(=N/OC(=O)Nc3ccccc3)CCC12` (stereo partly drawn), the TGI was above 100 µM in the assay on DMS 273 small cell lung; above 100 µM in the assay with OVCAR-3 ovarian; above 100 µM in the assay with SNB-19 CNS; 3.19 µM with XF 498 CNS; above 100 µM in the assay on SK-OV-3 ovarian; above 100 µM in the assay with KM20L2 colon. In the assay with 786-0 renal, this molecule yielded a concentration for total growth inhibition (TGI) above 100 µM.
Turning to `C/C(=C\c1ccccc1)C(=O)c1c(C)cc(C)cc1C`, the TGI with OVCAR-3 ovarian, with SNB-19 CNS, with XF 498 CNS, in the assay with SK-OV-3 ovarian, in the assay with KM20L2 colon and with 786-0 renal was above 100 µM throughout.
For the molecule `CNC(=O)NCCCCC(NC(C)=O)C(=O)NCc1ccccc1` (stereo not drawn), the TGI with DMS 273 small cell lung, in the assay on OVCAR-3 ovarian, in the assay on SNB-19 CNS, in the assay on XF 498 CNS, in the assay with SK-OV-3 ovarian and in the assay with KM20L2 colon was above 100 µM in each case. Moreover, the TGI with 786-0 renal is above 100 µM.
For `Cn1cnnc1Sc1c([N+](=O)[O-])nc(-c2ccc([N+](=O)[O-])cc2)n1C`, the TGI in the assay with DMS 273 small cell lung is 31.8 µM; in the assay on OVCAR-3 ovarian it was 30.8 µM; with SNB-19 CNS it was above 100 µM; in the assay on XF 498 CNS, 22.5 µM; in the assay on SK-OV-3 ovarian, above 100 µM; in the assay on 786-0 renal, 31.8 µM.
Take `O=C(NCCCN1CCN(CCCNC(=O)Nc2cc(Cl)ccc2Cl)CC1)Nc1cc(Cl)ccc1Cl`: the TGI in the assay with DMS 273 small cell lung, in the assay with OVCAR-3 ovarian, with SNB-19 CNS, in the assay with XF 498 CNS, in the assay on SK-OV-3 ovarian and with KM20L2 colon was above 100 µM in each case. The same molecule yielded a TGI in the assay with 786-0 renal above 100 µM.
`COc1ccc(OCC(=O)O)c2c1CCC(C)C2=O` (stereo not drawn): the TGI with DMS 273 small cell lung, in the assay with OVCAR-3 ovarian, with SNB-19 CNS, with XF 498 CNS, in the assay on SK-OV-3 ovarian and with KM20L2 colon was above 100 µM each time. Also, the TGI in the assay on 786-0 renal is above 100 µM.
On to `Nc1ccc(C(=O)N/C(=C\c2ccc3c(c2)OCO3)c2nc3ccccc3s2)cc1`, for which the TGI with DMS 273 small cell lung was found to be 34.2 µM; with OVCAR-3 ovarian, 30.8 µM; with SNB-19 CNS, 28.7 µM; with XF 498 CNS, 25.5 µM; with SK-OV-3 ovarian, 36.2 µM; in the assay with KM20L2 colon it was 28.7 µM. The molecule further displayed a TGI with 786-0 renal of 23.7 µM.
